Results from PubChem BioAssay (NCI).
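Assay format: 96-well plates, 48-hour exposure. Here, GI50 denotes the concentration required for 50% inhibition of growth. Definition used: TGI = concentration required for complete inhibition of growth.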

What follows are molecules tested on EKVX NSCLC (assay: growth of human tumour cells (NCI), 48 h).
Work on COCCCNc1nc(N)c(C#N)c(C#N)c1C#N yielded a TGI of over 10 µM.
CC1CCCCNC1=S (stereo not given) was tested, and the TGI was over 10 µM.
CCOC(=O)c1ccc(N[C@@H]2c3cc4c(cc3C(c3cc(OC)c(O)c(OC)c3)[C@H]3C(=O)OCC32)OCO4)cc1O (stereo not given in full) showed a TGI of over 22.6 µM.
CC1CC2=C(S(=O)(=O)c3ccccc3)CC(S(=O)(=O)c3ccccc3)(S(=O)(=O)c3ccccc3)CC21 (stereo not given) gave a TGI of over 100 µM.
CCC(C)NC1=NCC(C)S1 (stereo not given) showed a TGI of over 100 µM.
Clc1ccc(C[P+](c2ccccc2)(c2ccccc2)c2ccccc2)c(Cl)c1 gave a TGI of 31.4 µM.
COc1ccccc1CNCCCN1C(=O)c2ccc3c4c(ccc(c24)C1=O)C(=O)N(CCCNCCNCCCN)C3=O was tested, and the GI50 was 4.17 µM and the TGI was 16.3 µM.
NNC(=O)c1c(SCc2ccccc2)nc2c3ccccc3ccn12 showed a TGI of over 100 µM.
Molecule COc1cc2oc(-c3ccc(O)cc3)c(OC)c(=O)c2c(O)c1OC has a GI50 of 97 µM and a TGI of over 100 µM.

The molecules below were run on IGROV1 ovarian (assay: growth of human tumour cells (NCI), 48 h).
COCCCNc1nc(N)c(C#N)c(C#N)c1C#N was tested, and the TGI was over 10 µM.
Molecule CC1CCCCNC1=S (stereo not given) has a TGI of over 10 µM.
CCOC(=O)c1ccc(N[C@@H]2c3cc4c(cc3C(c3cc(OC)c(O)c(OC)c3)[C@H]3C(=O)OCC32)OCO4)cc1O (stereo not given in full) was tested, and the TGI was over 43.5 µM.
Work on CC1CC2=C(S(=O)(=O)c3ccccc3)CC(S(=O)(=O)c3ccccc3)(S(=O)(=O)c3ccccc3)CC21 (stereo not given) yielded a TGI of over 100 µM.
CCC(C)NC1=NCC(C)S1 (stereo not given) showed a TGI of over 100 µM.
For Clc1ccc(C[P+](c2ccccc2)(c2ccccc2)c2ccccc2)c(Cl)c1, the TGI was 15.6 µM.
COc1ccccc1CNCCCN1C(=O)c2ccc3c4c(ccc(c24)C1=O)C(=O)N(CCCNCCNCCCN)C3=O was tested, and the GI50 was 3.69 µM and the TGI was 15.9 µM.
NNC(=O)c1c(SCc2ccccc2)nc2c3ccccc3ccn12 showed a TGI of 51.2 µM.
In the case of COc1cc2oc(-c3ccc(O)cc3)c(OC)c(=O)c2c(O)c1OC, the GI50 is reported as 76.6 µM and the TGI is reported as over 100 µM.
C[C@@H]1Nc2cc(NC(=O)OCCF)nc(N)c2N=C1c1ccccc1 gave a TGI of under 0.0001 µM.

These molecules were tested on HCT-15 colon (assay: growth of human tumour cells (NCI), 48 h).
COCCCNc1nc(N)c(C#N)c(C#N)c1C#N was tested, and the TGI was over 10 µM.
CC1CCCCNC1=S (stereo not given) showed a TGI of over 10 µM.
With CCOC(=O)c1ccc(N[C@@H]2c3cc4c(cc3C(c3cc(OC)c(O)c(OC)c3)[C@H]3C(=O)OCC32)OCO4)cc1O (stereo not given in full) the TGI was 2.54 µM.
CC1CC2=C(S(=O)(=O)c3ccccc3)CC(S(=O)(=O)c3ccccc3)(S(=O)(=O)c3ccccc3)CC21 (stereo not given) was tested, and the TGI was over 100 µM.
CCC(C)NC1=NCC(C)S1 (stereo not given) was tested, and the TGI was over 100 µM.
Molecule Clc1ccc(C[P+](c2ccccc2)(c2ccccc2)c2ccccc2)c(Cl)c1 has a TGI of over 100 µM.
For COc1ccccc1CNCCCN1C(=O)c2ccc3c4c(ccc(c24)C1=O)C(=O)N(CCCNCCNCCCN)C3=O, the GI50 was 12.2 µM and the TGI was 26.8 µM.
In the case of NNC(=O)c1c(SCc2ccccc2)nc2c3ccccc3ccn12, the TGI is reported as 41.2 µM.
Work on COc1cc2oc(-c3ccc(O)cc3)c(OC)c(=O)c2c(O)c1OC yielded a GI50 of 23.3 µM and a TGI of over 100 µM.
C[C@@H]1Nc2cc(NC(=O)OCCF)nc(N)c2N=C1c1ccccc1 gave a TGI of over 100 µM.

These molecules were tested on HT29 colon (assay: growth of human tumour cells (NCI), 48 h).
COCCCNc1nc(N)c(C#N)c(C#N)c1C#N was tested, and the TGI was over 10 µM.
CC1CCCCNC1=S (stereo not given) gave a TGI of over 10 µM.
CCOC(=O)c1ccc(N[C@@H]2c3cc4c(cc3C(c3cc(OC)c(O)c(OC)c3)[C@H]3C(=O)OCC32)OCO4)cc1O (stereo not given in full) was tested, and the TGI was 1.32 µM.
Work on CC1CC2=C(S(=O)(=O)c3ccccc3)CC(S(=O)(=O)c3ccccc3)(S(=O)(=O)c3ccccc3)CC21 (stereo not given) yielded a TGI of over 100 µM.
CCC(C)NC1=NCC(C)S1 (stereo not given) was tested, and the TGI was over 100 µM.
Work on Clc1ccc(C[P+](c2ccccc2)(c2ccccc2)c2ccccc2)c(Cl)c1 yielded a TGI of 10.4 µM.
For COc1ccccc1CNCCCN1C(=O)c2ccc3c4c(ccc(c24)C1=O)C(=O)N(CCCNCCNCCCN)C3=O, the GI50 was 2.07 µM and the TGI was 11 µM.
NNC(=O)c1c(SCc2ccccc2)nc2c3ccccc3ccn12 gave a TGI of 35.3 µM.
With COc1cc2oc(-c3ccc(O)cc3)c(OC)c(=O)c2c(O)c1OC the GI50 was 31.1 µM and the TGI was over 100 µM.

Each molecule was assayed on SN12C renal (assay: growth of human tumour cells (NCI), 48 h).
With COCCCNc1nc(N)c(C#N)c(C#N)c1C#N the TGI was over 10 µM.
CC1CCCCNC1=S (stereo not given) was tested, and the TGI was over 10 µM.
CC1CC2=C(S(=O)(=O)c3ccccc3)CC(S(=O)(=O)c3ccccc3)(S(=O)(=O)c3ccccc3)CC21 (stereo not given) was tested, and the TGI was over 100 µM.
With CCC(C)NC1=NCC(C)S1 (stereo not given) the TGI was over 100 µM.
Clc1ccc(C[P+](c2ccccc2)(c2ccccc2)c2ccccc2)c(Cl)c1 was tested, and the TGI was 12.4 µM.
With COc1ccccc1CNCCCN1C(=O)c2ccc3c4c(ccc(c24)C1=O)C(=O)N(CCCNCCNCCCN)C3=O the GI50 was 2.09 µM and the TGI was 8.07 µM.
NNC(=O)c1c(SCc2ccccc2)nc2c3ccccc3ccn12 showed a TGI of over 100 µM.
COc1cc2oc(-c3ccc(O)cc3)c(OC)c(=O)c2c(O)c1OC was tested, and the GI50 was 33.7 µM and the TGI was over 100 µM.
With C[C@@H]1Nc2cc(NC(=O)OCCF)nc(N)c2N=C1c1ccccc1 the TGI was over 100 µM.

Each molecule was assayed on KM12 colon (assay: growth of human tumour cells (NCI), 48 h).
COCCCNc1nc(N)c(C#N)c(C#N)c1C#N was tested, and the TGI was over 10 µM.
Work on CC1CCCCNC1=S (stereo not given) yielded a TGI of over 10 µM.
Molecule CCOC(=O)c1ccc(N[C@@H]2c3cc4c(cc3C(c3cc(OC)c(O)c(OC)c3)[C@H]3C(=O)OCC32)OCO4)cc1O (stereo not given in full) has a TGI of 1.47 µM.
CC1CC2=C(S(=O)(=O)c3ccccc3)CC(S(=O)(=O)c3ccccc3)(S(=O)(=O)c3ccccc3)CC21 (stereo not given) was tested, and the TGI was over 100 µM.
Work on CCC(C)NC1=NCC(C)S1 (stereo not given) yielded a TGI of over 100 µM.
Work on Clc1ccc(C[P+](c2ccccc2)(c2ccccc2)c2ccccc2)c(Cl)c1 yielded a TGI of 7.01 µM.
Molecule COc1ccccc1CNCCCN1C(=O)c2ccc3c4c(ccc(c24)C1=O)C(=O)N(CCCNCCNCCCN)C3=O has a GI50 of 3.25 µM and a TGI of 11.4 µM.
For NNC(=O)c1c(SCc2ccccc2)nc2c3ccccc3ccn12, the TGI was over 100 µM.
In the case of COc1cc2oc(-c3ccc(O)cc3)c(OC)c(=O)c2c(O)c1OC, the GI50 is reported as 78.9 µM and the TGI is reported as over 100 µM.

What follows are molecules tested on MDA-MB-435 (assay: growth of human tumour cells (NCI), 48 h).
For COCCCNc1nc(N)c(C#N)c(C#N)c1C#N, the TGI was over 10 µM.
CC1CCCCNC1=S (stereo not given) gave a TGI of over 10 µM.
With CCC(C)NC1=NCC(C)S1 (stereo not given) the TGI was over 100 µM.
In the case of COc1ccccc1CNCCCN1C(=O)c2ccc3c4c(ccc(c24)C1=O)C(=O)N(CCCNCCNCCCN)C3=O, the GI50 is reported as 2.07 µM and the TGI is reported as 4.94 µM.
For NNC(=O)c1c(SCc2ccccc2)nc2c3ccccc3ccn12, the TGI was over 100 µM.
For C[C@@H]1Nc2cc(NC(=O)OCCF)nc(N)c2N=C1c1ccccc1, the TGI was under 0.0001 µM.

What follows are molecules tested on UACC-257 melanoma (assay: growth of human tumour cells (NCI), 48 h).
For CC1CCCCNC1=S (stereo not given), the TGI was over 10 µM.
For CCOC(=O)c1ccc(N[C@@H]2c3cc4c(cc3C(c3cc(OC)c(O)c(OC)c3)[C@H]3C(=O)OCC32)OCO4)cc1O (stereo not given in full), the TGI was over 100 µM.
Molecule CC1CC2=C(S(=O)(=O)c3ccccc3)CC(S(=O)(=O)c3ccccc3)(S(=O)(=O)c3ccccc3)CC21 (stereo not given) has a TGI of over 100 µM.
CCC(C)NC1=NCC(C)S1 (stereo not given) showed a TGI of over 100 µM.
For Clc1ccc(C[P+](c2ccccc2)(c2ccccc2)c2ccccc2)c(Cl)c1, the TGI was 7.64 µM.
COc1ccccc1CNCCCN1C(=O)c2ccc3c4c(ccc(c24)C1=O)C(=O)N(CCCNCCNCCCN)C3=O was tested, and the GI50 was 2.53 µM and the TGI was 7.96 µM.
NNC(=O)c1c(SCc2ccccc2)nc2c3ccccc3ccn12 was tested, and the TGI was over 100 µM.
With COc1cc2oc(-c3ccc(O)cc3)c(OC)c(=O)c2c(O)c1OC the GI50 was over 100 µM and the TGI was over 100 µM.
For C[C@@H]1Nc2cc(NC(=O)OCCF)nc(N)c2N=C1c1ccccc1, the TGI was over 100 µM.

Each molecule was assayed on SK-MEL-28 melanoma (assay: growth of human tumour cells (NCI), 48 h).
Work on COCCCNc1nc(N)c(C#N)c(C#N)c1C#N yielded a TGI of over 10 µM.
Molecule CC1CCCCNC1=S (stereo not given) has a TGI of over 10 µM.
Molecule CCOC(=O)c1ccc(N[C@@H]2c3cc4c(cc3C(c3cc(OC)c(O)c(OC)c3)[C@H]3C(=O)OCC32)OCO4)cc1O (stereo not given in full) has a TGI of 42 µM.
With CC1CC2=C(S(=O)(=O)c3ccccc3)CC(S(=O)(=O)c3ccccc3)(S(=O)(=O)c3ccccc3)CC21 (stereo not given) the TGI was over 100 µM.
CCC(C)NC1=NCC(C)S1 (stereo not given) showed a TGI of over 100 µM.
For Clc1ccc(C[P+](c2ccccc2)(c2ccccc2)c2ccccc2)c(Cl)c1, the TGI was 20.1 µM.
Work on COc1ccccc1CNCCCN1C(=O)c2ccc3c4c(ccc(c24)C1=O)C(=O)N(CCCNCCNCCCN)C3=O yielded a GI50 of 3.03 µM and a TGI of 9.66 µM.
Molecule NNC(=O)c1c(SCc2ccccc2)nc2c3ccccc3ccn12 has a TGI of over 100 µM.
With COc1cc2oc(-c3ccc(O)cc3)c(OC)c(=O)c2c(O)c1OC the GI50 was over 100 µM and the TGI was over 100 µM.
With C[C@@H]1Nc2cc(NC(=O)OCCF)nc(N)c2N=C1c1ccccc1 the TGI was over 100 µM.

The molecules below were run on MOLT-4 leukemia (assay: growth of human tumour cells (NCI), 48 h).
COCCCNc1nc(N)c(C#N)c(C#N)c1C#N was tested, and the TGI was over 10 µM.
CC1CCCCNC1=S (stereo not given) was tested, and the TGI was over 10 µM.
Molecule CCOC(=O)c1ccc(N[C@@H]2c3cc4c(cc3C(c3cc(OC)c(O)c(OC)c3)[C@H]3C(=O)OCC32)OCO4)cc1O (stereo not given in full) has a TGI of 1.21 µM.
With CC1CC2=C(S(=O)(=O)c3ccccc3)CC(S(=O)(=O)c3ccccc3)(S(=O)(=O)c3ccccc3)CC21 (stereo not given) the TGI was over 100 µM.
Work on CCC(C)NC1=NCC(C)S1 (stereo not given) yielded a TGI of over 100 µM.
Work on Clc1ccc(C[P+](c2ccccc2)(c2ccccc2)c2ccccc2)c(Cl)c1 yielded a TGI of 18.1 µM.
COc1ccccc1CNCCCN1C(=O)c2ccc3c4c(ccc(c24)C1=O)C(=O)N(CCCNCCNCCCN)C3=O showed a GI50 of 1.73 µM and a TGI of 5.81 µM.
NNC(=O)c1c(SCc2ccccc2)nc2c3ccccc3ccn12 showed a TGI of 41.3 µM.
COc1cc2oc(-c3ccc(O)cc3)c(OC)c(=O)c2c(O)c1OC was tested, and the GI50 was 27.4 µM and the TGI was over 100 µM.
C[C@@H]1Nc2cc(NC(=O)OCCF)nc(N)c2N=C1c1ccccc1 was tested, and the TGI was under 0.0001 µM.
